Reference: ChEMBL document CHEMBL1201862, “PubChem BioAssay data set” (2004)
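96-well plates; 48 h exposure; 5 concentrations. Endpoints by linear interpolation between flanking doses. Not reached: highest tested concentration assigned. GI50 is the concentration that inhibits growth by half.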 Activity calls are given as the source filed them. Cut-off read from the data, not from the text of the source: active = GI50 up to about 1.1 µM and inactive = higher.

Legend:
Assay in all cases: DTP human tumour cell line panel, 48 h
NCI-H23 = system: NCI-H23
Malme-3M = system: Malme-3M
CCRF-CEM = system: CCRF-CEM
HL-60 = system: HL-60
SF-539 = system: SF-539
HCT-116 = system: HCT-116
SK-OV-3 = system: SK-OV-3
HT-29 = system: HT-29
UO-31 = system: UO-31
MDA-MB-435 = system: MDA-MB-435
PC-3 = system: PC-3
MDA-N = system: MDA-N
BT-549 = system: BT-549
OVCAR-3 = system: OVCAR-3
SR = system: SR
NCI/ADR-RES = system: NCI/ADR-RES
SNB-75 = system: SNB-75
T47D = system: T47D
HCT-15 = system: HCT-15
KM12 = system: KM12

SMILES	GI50 (NCI-H23)	GI50 (Malme-3M)	GI50 (CCRF-CEM)	GI50 (HL-60)	GI50 (SF-539)	GI50 (HCT-116)	GI50 (SK-OV-3)	GI50 (HT-29)	GI50 (UO-31)	GI50 (MDA-MB-435)	GI50 (PC-3)	GI50 (MDA-N)	GI50 (BT-549)	GI50 (OVCAR-3)	GI50 (SR)	GI50 (NCI/ADR-RES)	GI50 (SNB-75)	GI50 (T47D)	GI50 (HCT-15)	GI50 (KM12)
CCNC(=O)OCC1C2=C(C(=O)C(C)=C(N)C2=O)N2CC3C(N3C)C12OC (stereo not given)	1.4 µM (inactive)	17.6 µM (inactive)	4.21 µM (inactive)	3.94 µM (inactive)	16.6 µM (inactive)	14.6 µM (inactive)	27.4 µM (inactive)	18.5 µM (inactive)	19.5 µM (inactive)	75.7 µM (inactive)	24.5 µM (inactive)	> 88.5 µM (inactive)	11.5 µM (inactive)	21.9 µM (inactive)	1.48 µM (inactive)	> 75.5 µM (inactive)	21.7 µM (inactive)	55.2 µM (inactive)	14.6 µM	
CCOC(=O)c1c(C)noc1/N=N/N(CCO)CCO	30.3 µM (inactive)	45.1 µM (inactive)	16.9 µM (inactive)	26.1 µM (inactive)		28.7 µM (inactive)	57.4 µM (inactive)	33.4 µM (inactive)	25.5 µM (inactive)	34 µM (inactive)	31.8 µM (inactive)	27.7 µM (inactive)	35.9 µM (inactive)	19.7 µM (inactive)	19.9 µM (inactive)	35.4 µM (inactive)	10.2 µM (inactive)	10.8 µM (inactive)	41.5 µM	36.6 µM (inactive)
Cc1sc2nc(N(C)C)oc(=O)c2c1C	> 100 µM (inactive)	> 100 µM (inactive)	94.6 µM (inactive)	37.9 µM (inactive)	> 100 µM (inactive)	> 100 µM (inactive)	> 100 µM (inactive)	> 100 µM (inactive)	21.6 µM (inactive)	> 100 µM (inactive)	63.1 µM (inactive)	> 100 µM (inactive)	15.8 µM (inactive)		40.8 µM (inactive)	70 µM (inactive)	34.5 µM (inactive)	58.7 µM (inactive)	82.6 µM	> 100 µM (inactive)
COc1ccc(C2CC(c3c(O)ccc4ccccc34)=NN2C(C)=O)cc1OC (stereo not given)	23.4 µM (inactive)	31 µM (inactive)	12.6 µM (inactive)		18.7 µM (inactive)	15.3 µM (inactive)	57.8 µM (inactive)	40 µM (inactive)	23.1 µM (inactive)	21.3 µM (inactive)	23.6 µM (inactive)	20.7 µM (inactive)	17 µM (inactive)	23.2 µM (inactive)	14.2 µM (inactive)	26.5 µM (inactive)	19.8 µM (inactive)	34.6 µM (inactive)	30.1 µM	34.2 µM (inactive)
O=c1n(/N=C/c2ccccc2)c(=O)n2n1C1C=CC2CC1	> 100 µM (inactive)		> 100 µM (inactive)	> 100 µM (inactive)	> 100 µM (inactive)	> 100 µM (inactive)	> 100 µM (inactive)	> 100 µM (inactive)	> 100 µM (inactive)	> 100 µM (inactive)	> 100 µM (inactive)	> 100 µM (inactive)	> 100 µM (inactive)	> 100 µM (inactive)	> 100 µM (inactive)	> 100 µM (inactive)	> 100 µM (inactive)	> 100 µM (inactive)	> 100 µM	> 100 µM (inactive)
COc1cc(C2SC(=N)Nc3c2c(C)nn3C(=O)c2ccccc2O)cc(OC)c1OC (stereo not given)	8.3 µM (inactive)	> 10 µM (inactive)	3.85 µM (inactive)		4.42 µM (inactive)	1.59 µM (inactive)	1.66 µM (inactive)	> 10 µM (inactive)	6.18 µM (inactive)	6.78 µM (inactive)	5.48 µM (inactive)	6.14 µM (inactive)	> 10 µM (inactive)	> 10 µM (inactive)	9.35 µM (inactive)	4.38 µM (inactive)	1.87 µM (inactive)	3.26 µM (inactive)	4.31 µM	8.3 µM (inactive)
CNC(=O)OCc1c2ccncc2c(C)c2c1[nH]c1ccccc12	0.195 µM (active)	0.372 µM (active)	0.0962 µM (active)		0.207 µM (active)	0.184 µM (active)	0.288 µM (active)	0.215 µM (active)	0.231 µM (active)	0.421 µM (active)	0.723 µM (active)	0.501 µM (active)	0.32 µM (active)	0.28 µM (active)	< 0.01 µM (active)	0.24 µM (active)	0.21 µM (active)	0.331 µM (active)	0.234 µM	0.449 µM (active)
COC(=O)/C=C\[C@@H]1[C@H](C)N1S(=O)(=O)c1ccc(C)cc1 (stereo not given in full)	> 100 µM (inactive)	> 100 µM (inactive)	> 100 µM (inactive)	> 100 µM (inactive)	> 100 µM (inactive)	> 100 µM (inactive)	> 100 µM (inactive)	> 100 µM (inactive)		> 100 µM (inactive)	> 100 µM (inactive)	> 100 µM (inactive)	> 100 µM (inactive)	> 100 µM (inactive)	> 100 µM (inactive)	> 100 µM (inactive)		> 100 µM (inactive)	> 100 µM	
